These results are taken from patent publication US20250066290A1, “DHODH INHIBITORS CONTAINING A CARBOXYLIC ACID BIOISOSTERE” (IMMUNIC AG, priority 2021, published 2025).

The test system of one series is RSV-A2. Kind of series: Antiviral activity on RSV-A2 in Hep-2 cells. The settings on record: human respiratory syncytial virus, HEp-2, 48 h, read-out: RSV-A2 IC50.
Series [1] is described as follows: Metabolic stability in human liver microsomes. An excerpt: (§1) The metabolism was monitored by HPLC-MS/MS. Verapamil served as positive control.
A short description of series [2]: Cytotoxicity in human rhinovirus test.
In another series the test system is human rhinovirus HRV-14. Briefly: Antiviral activity on human rhinovirus. The settings on record: Rhinovirus B, HRV14. The class given is cell-based.
A short description of series [3]: Mouse pharmacokinetics, female, deuteration matched pair analysis. The class given is in vivo, mice (C57BL/6J). How it is done: In another matched pair analysis the benefit of deuteration of the N-methoxyacetamide moiety was tested: the pharmacokinetic properties of the compounds were evaluated in 3 female mice (C57BL/6J, 8 week old) after oral or intravenous cassette dosing to assess the oral bioavailability. Dose was 5 mg/kg (oral) and 1 mg/kg (intravenous), application volume was 5 mL/kg (oral) and 2 mL/kg (intravenous), vehicle was 5% solutol, 95% NaCl solution (at 0.9% saline concentration) for oral and 5% solutol, 5% ethanol, 90% NaCl solution (at 0.9% saline concentration) for intravenous application. At each designated time point (0.25, 0.5, 1, 2, 4 and 8 h after dosing for oral; 0.083, 0.25, 0.5, 1, 4 and 8 h after dosing for intravenous), 20 μL whole blood were collected from the tail vein into Li-heparin tubes, frozen on dry ice within 1-2 minutes of sampling and stored at −20° C. until processed for LC-MS analysis.

A short description of series [4]: in vitro. In kind it is cell-based. The settings on record: human. An excerpt: (§2) The following results were obtained:
For series [5], the system named is SARS-CoV-2 reporter virus d6-YFP (WT). Briefly: microbe, parasite or virus in culture. The class given is cell-based. The settings on record: Severe acute respiratory syndrome coronavirus 2, Caco-2.
A further series concerns SARS-CoV-2. Briefly: SARS-CoV-2 viral replication (YFP) assay. The class given is cell-based. The settings on record: Severe acute respiratory syndrome coronavirus 2, read-out: EC50 range.
Series [6] addresses N-terminally truncated recombinant hDHODH enzyme (Homo sapiens, UniProt Q02127). Kind of series: biochemical. In kind it is biochemical. The settings on record: human DHODH assay; read-out: IC50 range. In outline: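 DCIP reduction followed at 600 nm for 2 min, with 60 μM 2,6-dichloroindophenol, 50 μM decylubiquinone and 100 μM dihydroorotate (reaction started with dihydroorotate). Buffer 50 mM TrisHCl, 150 mM KCl, 0.1% Triton X-100, pH 8.0, 30° C. IC50 from at least six compound concentrations.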

The next series has as its system RSV-B. Kind of series: Antiviral activity on RSV-B in Hep-2 cells. The class given is cell-based. The settings on record: human respiratory syncytial virus, 48 h, two days after infection.
Text: as §2

In another series the test system is RSV-Long. Kind of series: Antiviral activity on RSV-Long in Hep-2 cells. The settings on record: human respiratory syncytial virus, 48 h, two days after infection. The class given is cell-based.
Text: as §2

Series [7] is described as follows: Metabolic stability in rat liver microsomes. The settings on record: SD.
Text: as §1

Series [8] can be described thus: in vitro.
Series [9] in a line: A-B and B-A permeability (Caco-2, pH 7.4/7.4). In kind it is in vitro ADME, human. The settings on record: human; for recovery at 10 μM: Caco-2, Caco-2, 10 μM. The text has this:
(§3) The Caco-2 cell line is a human colon adeno-carcinoma cell line that differentiates in culture and resembles the epithelial lining of the human small intestine. […]

Series [10] in a line: Mouse pharmacokinetics, male and female, cassette dosing. The settings on record: for AUC / Cmax / half-life: C57BL/6J, mouse, in vivo; for AUC: 0 to 24 h; for Cmax: 5 mg/kg oral, 1 mg/kg intravenous cassette; for F: bioavailability. The class given is in vivo, mice (C57BL/6J). How it is done:
The pharmacokinetics of the compounds of the present invention was evaluated in 3 male and 3 female mice (C57BL/6J, 8 week old) after oral or intravenous cassette dosing to assess the oral bioavailability. Dose was 5 mg/kg (oral) and 1 mg/kg (intravenous), application volume was 5 mL/kg (oral) and 0.5 mL/kg (intravenous), vehicle was 5% solutol, 95% NaCl solution (at 0.9% saline concentration) for oral and 5% solutol, 5% ethanol, 90% NaCl solution (at 0.9% saline concentration) for intravenous. At each designated time point (0.5, 1, 2, 4, 8 and 24 h after dosing), 20 μL whole blood were collected from the tail vein into Li-heparin tubes, frozen on dry ice within 1-2 minutes of sampling and stored at −20° C. until processed for LC-MS analysis.

The target in series [11] is human URAT1 uptake transporter (Homo sapiens (Human), UniProt Q96S37). Briefly: Human URAT1 uptake transporter assay (MDCKII-URAT1-LV, SOLVO). The class given is cell-based. The settings on record: 10 μM compound, 20 μM uric acid probe substrate. How it is done: In the human URAT1 uptake transporter assay (host cell line: MDCKII), the accumulation of the probe substrate in the presence of a DHODH inhibitor (at a concentration of 10 μM) into cells was measured. The assay was executed at SOLVO with catalogue number MDCKII-URAT1-LV. 20 μM uric acid served as probe substrate. Reference inhibitor was benzbromarone at a concentration of 300 μM, which served as internal control.
human URAT1 uptake transporter, sequence (Q96S37 whole entry): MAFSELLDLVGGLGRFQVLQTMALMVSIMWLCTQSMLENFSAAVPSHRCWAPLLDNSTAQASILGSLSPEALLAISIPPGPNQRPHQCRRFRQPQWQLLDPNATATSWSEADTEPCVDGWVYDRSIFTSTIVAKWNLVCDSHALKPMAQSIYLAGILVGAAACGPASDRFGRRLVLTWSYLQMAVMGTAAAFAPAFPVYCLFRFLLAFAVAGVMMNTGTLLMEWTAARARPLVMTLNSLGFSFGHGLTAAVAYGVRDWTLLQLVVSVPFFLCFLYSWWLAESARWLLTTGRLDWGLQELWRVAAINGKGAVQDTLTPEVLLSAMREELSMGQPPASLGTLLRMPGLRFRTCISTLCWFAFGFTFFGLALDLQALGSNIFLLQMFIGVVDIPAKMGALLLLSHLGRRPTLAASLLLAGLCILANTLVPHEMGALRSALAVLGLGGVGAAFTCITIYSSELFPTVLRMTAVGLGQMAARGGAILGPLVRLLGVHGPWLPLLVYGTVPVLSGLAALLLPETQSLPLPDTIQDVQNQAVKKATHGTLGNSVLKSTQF

The test system of another series is Caco-2 monolayer. Briefly: A-B and B-A permeability (Caco-2, pH 7.4/7.4). The class given is in vitro ADME, human. The settings on record: Caco-2, pH 7.4.
Text: as §3

A short description of series [12]: Partition coefficient log D (n-octanol/PBS at pH 7.4). The class given is physicochemical. The settings on record: pH 7.4. The protocol:
The total amount of compound was determined as the peak area of the principal peak in a calibration standard (100 μM) containing organic solvent (MeOH/water, 60/40 v/v). The amount of compound in buffer was determined as the combined, volume-corrected and weighted areas of the corresponding peaks in the aqueous phases of three organic-aqueous samples of different composition. An automated weighting system was used to ensure the preferred use of raw data from those samples with well quantifiable peak signals. The amount of compound in organic was calculated by subtraction.
Subsequently, the partition coefficient (log D, n-octanol/PBS at pH 7.4) was calculated as the Log10 of the amount of compound in the organic phase divided by the amount of compound in the aqueous phase (Eurofins Discovery Services Item #417).

The conditions of series [13]: pH 7.4.

Converted amounts (≈) assume the structure as drawn. Where two headings read alike, the source gives them in different places.

N-terminally truncated recombinant hDHODH enzyme, sequence (Q02127 whole entry, looked up, the tested form may be a part): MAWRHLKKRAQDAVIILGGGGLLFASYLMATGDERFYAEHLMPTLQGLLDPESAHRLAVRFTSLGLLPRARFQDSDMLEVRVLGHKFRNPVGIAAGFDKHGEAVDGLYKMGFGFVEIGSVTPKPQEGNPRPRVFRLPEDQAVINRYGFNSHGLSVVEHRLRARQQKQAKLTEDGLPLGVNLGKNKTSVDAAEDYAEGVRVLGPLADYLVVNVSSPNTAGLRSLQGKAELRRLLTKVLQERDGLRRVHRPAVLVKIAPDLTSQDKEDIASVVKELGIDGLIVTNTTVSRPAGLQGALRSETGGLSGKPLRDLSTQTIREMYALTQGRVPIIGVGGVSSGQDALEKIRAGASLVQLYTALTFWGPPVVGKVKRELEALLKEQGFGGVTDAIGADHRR

Take `[2H]C([2H])([2H])Oc1cccc(-c2cc(F)c(NC(=O)c3ccsc3C(=O)NOC)c(F)c2)c1` [Example 9, N3-(3,5-Difluoro-3′-(methoxy-d3)-[1,1′-biphenyl]-4-yl)-N2-methoxythiophene-2,3-di-carboxamide]: the IC50 (in the series on RSV-A2; in [6]; with RSV-B; with RSV-Long) was less than 100 nM in each case. In addition, the microsomal CLint in [1] (female) was 55.5 µL/min/mg; in series [1] (male), 76.5 µL/min/mg; in series [7] (female), 63.8 µL/min/mg; in [7] (male) it was 183 µL/min/mg. Moreover, the CC50 in series [2] was greater than 25000 nM. For the same compound, the EC50 in the series with human rhinovirus HRV-14 (HRV-14, read-out: EC50) is 14 nM; in [5], 72 nM; in the series with SARS-CoV-2 it was less than 1000 nM. The compound also registered an AUC(0-t) in [3] (C57BL/6J, mouse, in vivo, female mice, 0 to 8 h) of 12300 ng·h/mL. Moreover, the peak level in series [3] (C57BL/6J, mouse, in vivo, female mice, 5 mg/kg oral, 1 mg/kg intravenous cassette) (Cmax) was 3000 ng/mL. The same compound yielded a F in series [3] (female mice, bioavailability) of 49%. In [3] (female, C57BL/6J, mouse, in vivo), this compound had a half-life of 2.6 h. In addition, the CC50 at 2 days in the series “in vitro [4]” stood at 45300 nM.
Consider `CCOC(=O)c1ccc(OCCC2CCN(c3ccc(C)nn3)CC2)cc1` [pirodavir], for which the EC50 in the series on human rhinovirus HRV-14 (HRV-14, read-out: EC50) stood at 0.3 nM. The same compound returned a CC50 in “in vitro [8]” of 4500 nM.
The compound `[2H]C([2H])([2H])Oc1cccc(-c2cc(F)c(NC(=O)C3=C(C(=O)NOC)CCC3)c(F)c2)c1` [Example 4] displayed a CC50 in series [2] greater than 25000 nM. Further, the recovery at 10 μM came to 60% in series [9] (A-B direction, read-out: recovery (A-B)) and 52% in series [9] (B-A direction, read-out: recovery (B-A)). Besides, the Papp A→B at 10 μM in [9] (Caco-2, 10 μM, pH 7.4/7.4) is 1.6 ×10⁻⁶ cm/s. The Papp B→A at 10 μM in series [9] (Caco-2, 10 μM, pH 7.4/7.4) amounted to 0.26 ×10⁻⁶ cm/s. Also, the EC50 with human rhinovirus HRV-14 was 2200 nM; in the series with SARS-CoV-2, less than 10000 nM. The AUC stood at 1210 ng·h/mL in [10] (female mice) and 1780 ng·h/mL in series [10] (male mice). Also, the Cmax in [10] (female mice) was found to be 690 ng/mL; in series [10] (male mice) it was 1110 ng/mL. Besides, the F entry in series [10] (female mice) is “♀ 87%”; in [10] (male mice) it was “♂ 63%”. Besides, the figures for the half-life in [10] (female) and in [10] (male) were 1.3 h and 1.1 h, respectively. Moreover, the “human URAT1 uptake transporter stimulation @ 10 μM” value in [11] is given as 26%.
In the series with Caco-2 monolayer, `[2H]C([2H])([2H])Oc1cccc(-c2cc(F)c(NC(=O)C3=C(C(=O)NOC)CCC3)c(F)c2)c1` [Comparative Example C1, reference compound] gave an A-B permeability of 0.068 ×10⁻⁶ cm/s and a B-A permeability of 0.88 ×10⁻⁶ cm/s. In addition, the logD in series [12] is recorded as 1.0. Also, the “human URAT1 uptake transporter stimulation @ 10 μM” value in series [11] was found to be 173%. The compound further came in with a solubility in series [13] of 220 µM (≈ 89.2 µg/mL).
